Results taken from patent US20050234113A1, “Antioxidant and radical scavenging activity of synthetic analogs of desferrithiocin” (University of Florida Research Foundation, Inc., priority 2002, published 2005).
Entries after “also recorded” stand apart in the source; their conditions may differ.

Legend:
[1] = Prevention of iron-mediated oxidation of ascorbate (ascorbate-mediated reduction of Fe(III)); settings: ascorbate 100 μM, FeCl3 30 μM, pH 7.4, ligand/Fe ratios 0-3, 40 min
[2] = system: acetic acid-induced colitis; assay: Acetic acid-induced colitis in rats, densitometric image analysis of colonic damage; assay type: in vivo; settings: for Damage (%): 650 μmol kg^−1 intracolonically 30 min before 4% acetic acid, mean ± standard deviation
Method: The ligands were administered to the rats intracolonically as a suspension or solution in distilled water (2 mL) at a dose of 650 μmol kg^−1. The drug solutions were made fresh for each experiment. ROWASA®, the pharmaceutical preparation which contains 5-ASA (2 mL, 66.7 mg mL^−1) was given at a dose of 2318 μmol kg^−1. Control rats received distilled water (2 mL), administered intracolonically.
Animal care and experimental procedures were approved by the Institutional Animal Care and Use Committee. Colitis was induced by a modification of published methods. Briefly, the rats were anesthetized with sodium pentobarbital, 55 mg kg^−1 intraperitoneally. The abdomen was shaved and prepared for surgery. A midline incision was made, and the cecum and proximal colon were exteriorized. A reversible suture was placed at the junction of the cecum and proximal colon. The colon was rinsed with saline (10 mL), and the fluid and intestinal contents were gently expressed out the rectum. A gum-based rectal plug was inserted. The compound of interest, or distilled water in the control animals (2 mL), was injected intracolonically just distal to the ligature. The cecum and proximal colon were returned to the abdominal cavity; the compound was allowed to remain in the gut for 30 min. Then, the cecum and proximal colon were reexteriorized. The rectal plug was removed, and the drug was gently expressed out of the colon. Acetic acid (4%, 2 mL) was injected into the proximal colon over a 15-20-second time period. The acid was allowed to remain in the gut until one minute had passed (i.e., 40-45 seconds after the end of the acid administration). The no acid control rats received distilled water (2 mL), which was administered in the same manner as was the acetic acid. Air (10 mL) was then injected into the proximal colon to expel the acid or water. The cecal/proximal colon ligature was removed, the gut was returned to the abdominal cavity, and the incisions were closed. The animals were allowed to recover overnight and were sacrificed 24 hr later. The entire length of the colon was removed and assessed for damage both densitometrically and biochemically.
Gross damage was quantitated using Photoshop-based image analysis (version 5.0, Adobe Systems, Mountain View, Calif., USA) on an Apple iMac computer. The Magic Wand tool in the Select menu of Photoshop was used to place the cursor on an area of obvious damage. The tolerance level of the Magic Wand tool was set at 30. The damaged areas were automatically selected by using the Similar command in the Select menu. Then, the Eyedropper tool was used to determine the range of the damage in the highlighted areas. Individual colon images were copied to a blank Photoshop page. The Magic Wand tool, with a tolerance set to 100, was used to select all of the pixels in the colon sample. Then, the Histogram tool, which generates a graph in which each vertical line represents the number of pixels associated with a brightness level, was selected in the Image menu. The Red channel was then selected; the darker (damaged areas) appear on the left side of the histogram and the lighter (normal) areas are on the right side. The cursor was then placed on the histogram, the color range determined in an earlier step was selected, and the number of pixels encompassing that range and the percent damage were quantified automatically.
Two means were employed to assess the damage to the colon in the presence and absence of ligand, computer-based image analysis and colonic MPO measurement. The densitometric method removes much of the subjectivity involved in the simple scoring approaches. A digital image of the prepared colonic tissue is taken, and a clearly damaged segment is highlighted on the screen. Once the computer identifies all other segments of the intestine with the same or greater damage, a pixel number is generated; this number makes it possible to calculate the percentage of damaged intestine.

Row | Compound | effect on ascorbate-mediated reduction of Fe(III) (in words) [1] | Damage (%) [2] [%] | protection against acetic acid-induced colonic damage (in words) ([2]; intracolonic, image analysis and MPO assay)
1 | O=C(O)[C@H]1CSC(c2ccc(O)cc2O)=N1 [4′-(HO)-DADMDFT, 4′-hydroxydesazadesmethyldesferrithiocin] | significant protection | 57 ± 15 | ineffective
2 | CC(=O)N(O)CCCCCNC(=O)CCC(=O)N(O)CCCCCNC(=O)CCC(=O)N(O)CCCCCN [DFO, Desferrioxamine B, reference compound] | inhibited; also recorded: significant inhibition | 39 ± 15 | –
